Laboratory results published in patent US10857230B2, “Co-therapy comprising a small molecule CSF-1R inhibitor and an agonistic antibody that specifically binds CD40 for the treatment of cancer” (Janssen Biotech, Inc., priority 2017, dated 2020).
Where “and” joins values, the source holds several entries; their conditions need not be identical. Equal entries are not always repeated.

System: CT26 murine colon carcinoma cells
Assay: CT26 Tumor Size Assay (Example 2)
Assay type: in vivo, BALB/c mice
Conditions: for Median TTE: 39-day study
Protocol: The animals were fed ad libitum water (reverse osmosis, 1 ppm CI) and NIH 31 Modified and Irradiated Lab Diet® consisting of 18.0% crude protein, 5.0% crude fat, and 5.0% crude fiber. The mice were housed on irradiated Enrich-o'Cobs™ bedding in static microisolators on a 12-hour light cycle at 20-22° C. (68-72° F.) and 40-60% humidity.
CT26 murine colon carcinoma cells were grown in RPMI-1640 medium containing 10% fetal bovine serum, 2 mM glutamine, 100 units/mL penicillin G sodium, 100 μg/mL streptomycin sulfate, and 25 μg/mL gentamicin. The cells were cultured in tissue culture flasks in a humidified incubator at 37° C., in an atmosphere of 5% CO2 and 95% air.
The CT26 colon cells used for implantation were harvested during log phase growth and re-suspended in cold PBS. Each mouse was injected subcutaneously in the right flank with 3×10^5 tumor cells (0.1 mL cell suspension) and tumors were monitored as their volumes approached the target range of 75 to 125 mm3. Fourteen days after tumor implantation, on Day 1 of the study, animals with individual tumor volumes ranging from 75 to 125 mm^3 were sorted into fourteen groups (n=10) with group mean tumor volumes of 118-119 mm3. Tumors were measured with calipers twice weekly in two dimensions.
where w=width and l=length, in mm, of a tumor. Tumor weight was estimated with the assumption that 1 mg is equivalent to 1 mm3 of tumor volume.
The compound of formula (I), rat IgG2a (Clone 2A3) (5.55 mg/mL), anti-mCD40 (Clone FGK45) (5.46 mg/mL, purchased from BioXCell, anti-mouse CD40, Clone: FGK45, SKU: 13E0016-2, Lot No. 4699/0614B), and anti-CSF1R (5.41 mg/mL, purchased from BioXCell anti-mouse CSF1R (CD115), Clone: AFS98, SKU: BE0213, Lot No. 5248/0814) were used as test compounds, alone and in combination. The compound of formula (I) was stored at room temperature and antibody stock solutions were stored at 4° C. upon receipt.
Each week of dosing, the compound of formula (I) was dissolved in 0.5% HPMC to yield a 1.0 mg/mL dosing solution. The dosing solution was stored at 4° C., protected from light. The rat IgG2a isotype and anti-CSF1R dosing solutions were prepared fresh each day by diluting aliquots of the stock solutions with PBS to yield 1.0 mg/mL dosing solutions. The dosing solutions were stored at 4° C., protected from light. The anti-mCD40 dosing solution was prepared fresh each day by diluting an aliquot of the stock solution with PBS to yield a 0.5 mg/mL dosing solution. The dosing solution was stored at 4° C., protected from light.
On Day 1 of the study, fourteen groups of BALB/c mice (n=10) began dosing according to the following protocol.
The vehicle (0.5% HPMC) and the compound of formula (I) were administered orally (p.o.). The rat IgG2a isotype control, anti-mCD40, and anti-CSF1R were administered intraperitoneally (i.p.). Rat IgG2a(2A3), the compound of formula (I) and the anti-CSF1R were administered at 10 mg/kg. The anti-mCD40 was administered at 5 mg/kg. The dosing volume for all animals was 10 mL/kg (0.2 mL per 20-g mouse) and was adjusted for body weight.
Tumors were measured using calipers twice per week. The study endpoint was originally defined as a mean tumor volume of 1500 mm^3 in the control group or 60 days, whichever came first. Day 15 was chosen for TGI analysis. The MTV (n), the median tumor volume for the number of animals, n, on Day 15, was determined for each group. Percent tumor growth inhibition (% TGI) was defined as the difference between the MTV of the designated control group (Group 1) and the MTV of the drug-treated group, expressed as a percentage of the MTV of the control group: […]
The data set for TGI analysis includes all animals in a group, except those that die due to treatment-related (TR) or non-treatment-related (NTR) causes.
Animals were monitored individually for tumor growth until Day 39. The study protocol specified a tumor growth delay assay based on the median time-to-endpoint (TTE) in a treated group versus the control group. […]

[1] = Groups 3-7: all dosing from Day 1 (antibodies i.p. Days 1, 5, 9, formula (I) p.o. bid×14), formula (I) and anti-CSF1R 10 mg/kg, anti-mCD40 5 mg/kg, vs rat IgG2a control Group 1
[2] = Groups 9, 11, 13, 14: formula (I) 10 mg/kg p.o. bid×14 beginning Day 4 or anti-CSF1R 10 mg/kg i.p. Days 4, 8, 12, in combinations anti-mCD40 5 mg/kg i.p. Days 1, 5, 9, vs rat IgG2a control Group 1

SMILES: CC1(C)CC=C(c2nc(C3CC(C)(C)OC(C)(C)C3)ccc2NC(=O)c2nc(C#N)c[nH]2)CC1 [compound of formula (I), 4-cyano-N-(2-(4,4-dimethylcyclohex-1-en-1-yl)-6-(2,2,6,6-tetramethyltetrahydro-2H-pyran-4-yl)pyridin-3-yl)-1H-imidazole-2-carboxamide]
- MTV (n) Day 15 (Day 15, Groups 3-7: all dosing from Day 1 (antibodies i.p. Days 1, 5, 9, formula (I) p.o. bid×14), formula (I) and anti-CSF1R 10 mg/kg, anti-mCD40 5 mg/kg): 1913 mm^3
- MTV (n) Day 15 (Day 15, Groups 9, 11, 13, 14: formula (I) 10 mg/kg p.o. bid×14 beginning Day 4 or anti-CSF1R 10 mg/kg i.p. Days 4, 8, 12, in combinations anti-mCD40 5 mg/kg i.p. Days 1, 5, 9): 1545 mm^3 and 1545 (8) mm^3
- % TGI (Day 15, vs rat IgG2a control Group 1, Groups 3-7: all dosing from Day 1 (antibodies i.p. Days 1, 5, 9, formula (I) p.o. bid×14), formula (I) and anti-CSF1R 10 mg/kg, anti-mCD40 5 mg/kg): 23%
- % TGI (Day 15, vs rat IgG2a control Group 1, Groups 9, 11, 13, 14: formula (I) 10 mg/kg p.o. bid×14 beginning Day 4 or anti-CSF1R 10 mg/kg i.p. Days 4, 8, 12, in combinations anti-mCD40 5 mg/kg i.p. Days 1, 5, 9): 38%
- Median TTE (Groups 3-7: all dosing from Day 1 (antibodies i.p. Days 1, 5, 9, formula (I) p.o. bid×14), formula (I) and anti-CSF1R 10 mg/kg, anti-mCD40 5 mg/kg, 1500 mm^3 endpoint): 13.0 days
- % TGD [1]: 7%
- T-C [1]: 0.9 days
- Median TTE (Groups 9, 11, 13, 14: formula (I) 10 mg/kg p.o. bid×14 beginning Day 4 or anti-CSF1R 10 mg/kg i.p. Days 4, 8, 12, in combinations anti-mCD40 5 mg/kg i.p. Days 1, 5, 9, 1500 mm^3 endpoint): 13.9 days
- % TGD [2]: 15%
- T-C [2]: 1.8 days
